The text below walks through data of patent US20070258972A1, “Combination of a Histone Deacetylase Inhibitor with a Death Receptor Ligand” (priority 2003, published 2007).

Test [1] relates to SKW 6.4 and Jurkat leukemia cells. The test can be described thus: Multi-probe RNase protection assay of mRNA levels. Format: cell-based, human. As for the experimental part:
A RiboQuant Multi-Probe RNase Protection Assay System was used according to the manufacturer's instructions (BD/PharMingen, San Diego, Calif.). A probe set, hAPO-3d (FLICE, FAS, DR5, DR4 and TRAIL) was used for T7 RNA-polymerase directed synthesis of [α-32P] UTP-labeled antisense RNA probes. The probe set contains the DNA templates, including glyceraldehyde-3-phosphate dehydrogenase (GAPDH) used as internal control. The probes (1×10^6 cpm/reaction) are hybridized with 20 μg of RNA isolated from the SKW 6.4 and Jurkat leukemia cells, following treatment with 100 nM LAQ824 at different time points using the RNeasy Mini kit (Qiagen, Valencia, Calif.). After overnight hybridization, samples are digested with RNase to remove single-stranded (non-hybridized) RNA. The remaining probes are resolved on 5% de-naturing polyacrylamide gel and analyzed by autoradiography.

The subject of test [2] is primary AML blasts. The test can be described thus: Western analyses of proteins, primary AML blasts. Format: cell-based, human. The procedure:
Western analyses of DR4, DR5, Apo-2L, FADD, Caspase-8, c-FLIPL & S, BID, Caspase-9, Caspase-3, PARP, XIAP, clAP1, survivin and β-actin are performed using specific anti-sera or monoclonal antibodies according to previously reported protocols. Horizontal scanning densitometry was performed on Western blots by using acquisition into Adobe Photo Shop (Apple, Inc., Cupertino, Calif.) and analysis by the NIH Image Program (U.S. National Institutes of Health, Bethesda, Md.). The expression of β-actin was used as a control.

For test [3], the system named is DR5. Description: DR5 cell-membrane expression by flow cytometry, Jurkat cells. Type of test: cell-based, human.
In test [4] the test system is DR5. Description: DR5 expression on the cell membrane by flow cytometry, primary AML sample. Type of test: cell-based, human. On the technique in general: In flow cytometry, cells or beads pass a laser one at a time.
Test [5] deals with HDAC. The settings on record: 5-250 nM; HeLa cell nuclear extracts; previously reported; cited from earlier work.
Test [6] deals with Primary AML cells. Description: Apoptosis of primary AML cells by annexin V staining and flow cytometry. Format: cell-based, human. The settings on record: for % of Apoptosis: LAQ824 100 nM and/or Apo-2L/TRAIL 100 ng/mL, 24 hours. An excerpt: Jurkat T cell leukemia and SKW6.4 B lymphoblast cells are obtained from American Tissue Culture Collection (Manassas, Va.). HL-60/Bcl-2 cells with ectopic over-expression of Bcl-2 and the control HL-60/Neo cells are created and maintained in culture as previously described. Primary leukemia blasts from six patients with AML in relapse are harvested, as previously described, from the peripheral blood or bone marrow after informed consent, as a part of a protocol study sanctioned by the local Institutional Review Board. The purity of leukemia blasts in the samples prior to culture in LAQ824 and/or Apo-2L/TRAIL was at least 80% or more, as determined by morphologic evaluation after Wright staining.
After drug treatments, cells are resuspended in 100 μL of the staining solution containing annexin-V fluorescein and propidium iodide in a HEPES buffer (Annexin-V-FLUOS Staining Kit, Boehringer-Mannheim, and Indianapolis, Ind.). Following incubation at room temperature for 15 minutes, annexin V positive cells are estimated by flow cytometry, as previously described.

The mark [7] stands for this setting: 8 hours or 16 hours, densitometry, GAPDH loading control.

On to `O=C(/C=C/c1ccc(CN(CCO)CCc2c[nH]c3ccccc23)cc1)NO` [LAQ824, N-hydroxy-3-[4-[[(2-hydroxyethyl)[2-(1H-indol-3-yl)ethyl]-amino]methyl]phenyl]-2E-2-propenamide], for which the “mRNA levels of Apo-2L/TRAIL and caspase-8 (FLICE)” value in test [1] was “only minimally affected”. In test [1] (setting [7]), the “mRNA expression of DR5, increase” value is recorded as 2.4 fold. For the same compound, the “mRNA expression of FAS, increase” value in test [1] (setting [7]) was found to be 1.5 fold. The “DR4 mRNA levels, increase” value in test [1] (only in SKW 6.4 cells) amounted to 2.2 fold. Further, the “DR4 and DR5 levels” value in test [2] was “increases”. The “levels of FLIPL and c-FLIPS” value in test [2] is on record as “down-regulates”. Moreover, the “acetylation of histones H3 and H4” value in test [2] (100 nM or 250 nM, 24 hours) is “induces”. For the same compound, the “cell-membrane expression of DR5” value in test [3] was “induces”. Further, the “DR5 expression on the cell membrane” value is recorded as 33.2 % of cells in test [4] (100 nM LAQ824, baseline 17.5%) and 62.4 % of cells in test [4] (250 nM LAQ824, baseline 17.5%). For the same compound, the “in vitro HDAC activity” value in test [5] is given as “inhibits the in vitro HDAC activity in a dose-dependent manner”. Further, the “% of Apoptosis” value in test [6] (Patient 1 primary AML cells, control 7.0) worked out at 14.5%; in test [6] (Patient 2 primary AML cells, control 12.0) it was 29.5%; in test [6] (Patient 3 primary AML cells, control 8.0), 22.9%; in test [6] (Patient 4 primary AML cells, control 10.0), 27.9%; in test [6] (Patient 5 primary AML cells, control 6.0), 57.8%; in test [6] (Patient 6 primary AML cells, control 7.0), 7.9%. Besides, in test [6] (six samples, relapsed AML, Apo-2L/TRAIL 100 ng/mL, LAQ824 100 nM), the “apoptosis of primary AML blasts (in words)” value is reported as “induces more apoptosis”.
